Assay results taken from US10078087B2, “Assays and enhancers of the human delta ENaC sodium channel” (SENOMYX, INC., priority 2001, dated 2018).

Assays:
[1] = tested on: human salty taste perception; assay: effect of amiloride on human salty taste perception; format: in vivo; settings: humans; levels ~300-fold above IC50 for αβγ ENaC (~10-fold over IC50 for δβγ ENaC) in oocytes
δβγ hENaC = biological target: T1, δβγ hENaC (Homo sapiens, UniProt P51168+P51170+P51172); assay: two-electrode voltage clamp of oocytes expressing delta beta gamma hENaC; format: cell-based
T1 construct: expressed in transfected cells; host or cells: Xenopus laevis oocytes injected with cRNA of each subunit
T1 sequence (P51172 1-638 isoform P51172-1): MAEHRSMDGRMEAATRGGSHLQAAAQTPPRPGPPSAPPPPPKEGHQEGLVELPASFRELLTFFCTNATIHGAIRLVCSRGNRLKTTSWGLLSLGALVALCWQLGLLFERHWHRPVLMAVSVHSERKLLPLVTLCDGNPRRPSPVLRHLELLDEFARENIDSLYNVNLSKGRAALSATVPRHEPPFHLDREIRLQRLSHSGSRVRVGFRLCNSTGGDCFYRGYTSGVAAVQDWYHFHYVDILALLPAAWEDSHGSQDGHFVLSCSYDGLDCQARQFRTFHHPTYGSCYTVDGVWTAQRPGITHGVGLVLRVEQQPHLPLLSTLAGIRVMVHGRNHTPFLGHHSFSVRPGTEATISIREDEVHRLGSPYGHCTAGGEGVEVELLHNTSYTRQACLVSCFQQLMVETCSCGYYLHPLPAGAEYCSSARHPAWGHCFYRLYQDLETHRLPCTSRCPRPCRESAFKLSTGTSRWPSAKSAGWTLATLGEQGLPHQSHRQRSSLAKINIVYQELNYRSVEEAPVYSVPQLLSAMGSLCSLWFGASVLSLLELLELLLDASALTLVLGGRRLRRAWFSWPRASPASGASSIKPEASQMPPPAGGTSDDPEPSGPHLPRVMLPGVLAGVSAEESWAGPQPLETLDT
T1 sequence (P51168 1-640): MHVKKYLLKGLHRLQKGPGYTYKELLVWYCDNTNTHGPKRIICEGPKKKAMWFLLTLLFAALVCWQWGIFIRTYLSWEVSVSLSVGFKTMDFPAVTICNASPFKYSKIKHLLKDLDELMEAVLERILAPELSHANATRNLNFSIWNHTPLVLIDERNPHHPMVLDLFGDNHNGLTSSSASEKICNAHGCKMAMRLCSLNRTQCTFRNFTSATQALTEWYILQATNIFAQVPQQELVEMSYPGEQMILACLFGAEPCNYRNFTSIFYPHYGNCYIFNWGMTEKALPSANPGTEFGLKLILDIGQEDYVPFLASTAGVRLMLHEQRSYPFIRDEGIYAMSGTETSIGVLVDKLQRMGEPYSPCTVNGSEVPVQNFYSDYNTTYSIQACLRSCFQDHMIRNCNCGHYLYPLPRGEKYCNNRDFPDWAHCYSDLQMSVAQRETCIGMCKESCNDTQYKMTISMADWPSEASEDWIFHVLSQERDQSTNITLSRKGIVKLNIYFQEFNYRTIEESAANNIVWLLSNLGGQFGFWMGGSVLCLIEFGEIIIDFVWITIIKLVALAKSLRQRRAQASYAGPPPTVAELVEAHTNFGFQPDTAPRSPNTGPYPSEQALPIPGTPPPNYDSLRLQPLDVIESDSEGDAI
T1 sequence (P51170 1-649): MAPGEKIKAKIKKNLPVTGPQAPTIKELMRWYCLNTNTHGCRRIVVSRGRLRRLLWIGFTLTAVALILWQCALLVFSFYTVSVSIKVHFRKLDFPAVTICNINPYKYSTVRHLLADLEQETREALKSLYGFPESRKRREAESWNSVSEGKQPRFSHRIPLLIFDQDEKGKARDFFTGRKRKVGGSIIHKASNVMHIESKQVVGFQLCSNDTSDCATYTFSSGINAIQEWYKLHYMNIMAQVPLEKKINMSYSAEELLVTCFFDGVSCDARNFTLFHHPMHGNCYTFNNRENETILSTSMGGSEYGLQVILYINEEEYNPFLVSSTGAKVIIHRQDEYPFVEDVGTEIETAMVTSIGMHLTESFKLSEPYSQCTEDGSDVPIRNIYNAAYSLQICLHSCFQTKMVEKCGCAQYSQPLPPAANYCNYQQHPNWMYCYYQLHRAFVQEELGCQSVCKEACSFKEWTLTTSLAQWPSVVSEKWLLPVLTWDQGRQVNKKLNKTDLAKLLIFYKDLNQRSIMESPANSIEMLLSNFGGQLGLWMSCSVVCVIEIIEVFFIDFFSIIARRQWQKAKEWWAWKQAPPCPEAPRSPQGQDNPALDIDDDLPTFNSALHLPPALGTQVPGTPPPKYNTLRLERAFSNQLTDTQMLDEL
Text: α, β, and γ hENaC were cloned from kidney cDNA (Origene, Rockville, Md.) into pcDNA3 (Invitrogen, Carlsbad, Calif.) as described previously (Kellenberger, S and Schild, L. Physiol. Rev. 82:735-767(2002). δ hENaC was cloned from testis cDNA (BD Biosciences Clontech, Palo Alto, Calif.). α hENaC sequence was identical to published sequences from lung and kidney (Rossier et al., Annu. Rev. Physiol. 64:877-897 (2002); Alvarez de la Rosa et al., Annu. Rev. Physiol. 62:573-594 (200). (Genbank accession numbers X76180 and L29007). β hENaC sequence was identical to published sequence from lung Bigiani et al. Bigiani et al., Prog. Biophys. Mol. Biol. 83:193-225 (2003). (Genbank accession number X87159) with the exception of a glycine (nucleotide triplet GGC) to alanine (nucleotide triplet GCC) substitution in our clone at amino acid 314. […] (GenBank accession number BC059391). δ hENaC sequence was identical to published sequence from kidney (Shimkets et al., Cell 79: 407414 (1994)) with the exception of a tyrosine (nucleotide triplet TAC) to cysteine (nucleotide triplet TGC) substitution in our clone at amino acid 532.
ENaC cRNA was generated from linearized plasmids using the mMESSAGE mMACHINE kit with T7 RNA polymerase according to the manufacturer's instructions (Ambion, Austin, Tex.). cRNA quality was checked by denaturing agarose gel electrophoresis and spectrophometric absorbance readings at 260 and 280 nm to ensure that full-length, non-degraded cRNA was generated.
Female Xenopus laevis South African clawed frogs greater than or equal to 9 cm in length were obtained from NASCO (Fort Atkinson, Wis.). Frogs were anesthetized in 0.15% ethyl-3-aminobenzoate methanesulfonate (Sigma, St. Louis, Mo.) in distilled water and placed on ice. […]
Unless noted otherwise, ENaC function was measured using the two-electrode voltage clamp technique on an OpusXpress 6000A parallel oocyte voltage clamp system twenty-four hours post-microinjection (Axon Instruments, Union City, Calif.). […]

[2] = tested on: human salty taste perception; settings: humans; concentrations that specifically modulate ENaC function; cited from earlier work
αβγ hENaC = biological target: T2, αβγ hENaC (Homo sapiens, UniProt P37088+P51168+P51170); assay: two-electrode voltage clamp of oocytes expressing alpha beta gamma hENaC; format: cell-based
T2 construct: expressed in transfected cells; host or cells: Xenopus laevis oocytes injected with cRNA of each subunit
T2 sequence (P37088 1-669): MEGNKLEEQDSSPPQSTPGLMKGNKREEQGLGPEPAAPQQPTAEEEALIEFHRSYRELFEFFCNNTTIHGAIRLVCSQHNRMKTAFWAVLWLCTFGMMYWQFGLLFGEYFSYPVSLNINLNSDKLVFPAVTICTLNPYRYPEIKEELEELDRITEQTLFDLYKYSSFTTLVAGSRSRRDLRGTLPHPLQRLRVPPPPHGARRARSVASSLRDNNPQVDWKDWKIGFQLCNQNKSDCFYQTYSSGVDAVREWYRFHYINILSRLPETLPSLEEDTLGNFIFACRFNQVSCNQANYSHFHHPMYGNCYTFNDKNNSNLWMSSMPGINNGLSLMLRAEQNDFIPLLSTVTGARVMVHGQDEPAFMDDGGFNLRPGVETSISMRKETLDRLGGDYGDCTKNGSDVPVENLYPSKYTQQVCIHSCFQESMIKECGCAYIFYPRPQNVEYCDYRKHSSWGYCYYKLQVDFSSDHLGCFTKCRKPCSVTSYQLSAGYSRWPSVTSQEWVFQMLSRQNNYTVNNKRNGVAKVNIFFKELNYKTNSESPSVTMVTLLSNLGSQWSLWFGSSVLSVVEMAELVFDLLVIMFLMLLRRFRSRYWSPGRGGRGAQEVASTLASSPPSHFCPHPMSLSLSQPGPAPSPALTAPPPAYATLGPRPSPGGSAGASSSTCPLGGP
T2 sequence (P51168 1-640): T1 sequence (P51168 1-640)
T2 sequence (P51170 1-649): T1 sequence (P51170 1-649)
Text: α, β, and γ hENaC were cloned from kidney cDNA (Origene, Rockville, Md.) into pcDNA3 (Invitrogen, Carlsbad, Calif.) as described previously (Kellenberger, S and Schild, L. Physiol. Rev. 82:735-767(2002). δ hENaC was cloned from testis cDNA (BD Biosciences Clontech, Palo Alto, Calif.). α hENaC sequence was identical to published sequences from lung and kidney (Rossier et al., Annu. Rev. Physiol. 64:877-897 (2002); Alvarez de la Rosa et al., Annu. Rev. Physiol. 62:573-594 (200). (Genbank accession numbers X76180 and L29007). β hENaC sequence was identical to published sequence from lung Bigiani et al. Bigiani et al., Prog. […] (Genbank accession number X87159) with the exception of a glycine (nucleotide triplet GGC) to alanine (nucleotide triplet GCC) substitution in our clone at amino acid 314. […]
ENaC cRNA was generated from linearized plasmids using the mMESSAGE mMACHINE kit with T7 RNA polymerase according to the manufacturer's instructions (Ambion, Austin, Tex.). cRNA quality was checked by denaturing agarose gel electrophoresis and spectrophometric absorbance readings at 260 and 280 nm to ensure that full-length, non-degraded cRNA was generated. […]

[3] = compound concentration not given, N = 5-7 oocytes

Molecule | effect on perceived salt intensity [1] | inhibition at 10 µM (δβγ hENaC) | IC50 (δβγ hENaC; Xenopus oocytes, n=10, mean±SEM) | reduction of intensity of sodium chloride taste [2] | inhibition at 1 µM (αβγ hENaC) | % Enhance δβγ (δβγ hENaC; [3]) | % Enhance αβγ (αβγ hENaC; [3])
N=C(N)NC(=O)c1nc(Cl)c(N)nc1N [amiloride] | did not elicit a significant effect | > 90% | 2700 ± 300 nM | 15-20% | > 90% | – | –
Choline C1 | – | – | – | – | – | 52 +/− 5% | 53 +/− 17%
